# Experimental data taken from patent US10925280B2, “Solid agrochemical compositions” (UPL LIMITED, priority 2015, dated 2021).
# Assays:
# [1] = Weight gain (uptake of moisture) at 30° C. and 60% humidity as per ASTM (1996) method; type: physicochemical
# Text: (§1) It has been observed that the granular compositions according to the present inventions are dry solids as evidenced by the appearance. […] Further, the granules were appeared as dry solids after 6 months of storage. The inventors of the present invention confirmed the stability of the granules by investigating the weight gain of the compositions and by calculating the relative weight gain with respect to glufosinate salt. The weight gain of the granular compositions according to the present invention were investigated at 30° C. and 60% humidity as per ASTM (1996) method and the results are summarized in the below table (Table 3).
# Relative % weight gain of the composition is calculated using the formula given below:
# [formula] [formula] • wherein X is glufosinate ammonium technical
# [2] = Physical appearance in open containers at ambient conditions; type: physicochemical
# Text: The appearances for the granular compositions prepared according to the present invention were investigated in open containers at ambient conditions.
# as §1
compound,measurement,setting,value
"CP(=O)(O)CCC(N)C(=O)O (stereo not shown) [Glufosinate ammonium, 2-amino-4-[hydroxy(methyl)phosphinoyl]butyric acid]",% weight gain after 24 hrs,[1]; 24 hrs,1.834%
same,Weight of sample after 24 hrs,[1]; 24 hrs,1.0219 g
same,Relative % weight gain after 24 hrs,"[1]; 24 hrs, relative to glufosinate ammonium technical",100%
same,Weight of sample,[1]; start,1.0035 g
same,Appearance at 0 hrs,[2]; 0 hrs,Dry solid
same,Appearance After 24 hrs,[2]; 24 hrs,Wet solid
same,Appearance After 72 hrs,[2]; 72 hrs,Liquid
